Like-named read-outs stand apart in the source and are kept apart here.
Assays:
[1] = biological target: T1, cALDH-I (Rattus norvegicus, UniProt P51647); format: biochemical
T1 construct: His tag (pTrcHis vector) (N); made in house; host or cells: E. coli BL-21
T1 sequence (P51647 1-501): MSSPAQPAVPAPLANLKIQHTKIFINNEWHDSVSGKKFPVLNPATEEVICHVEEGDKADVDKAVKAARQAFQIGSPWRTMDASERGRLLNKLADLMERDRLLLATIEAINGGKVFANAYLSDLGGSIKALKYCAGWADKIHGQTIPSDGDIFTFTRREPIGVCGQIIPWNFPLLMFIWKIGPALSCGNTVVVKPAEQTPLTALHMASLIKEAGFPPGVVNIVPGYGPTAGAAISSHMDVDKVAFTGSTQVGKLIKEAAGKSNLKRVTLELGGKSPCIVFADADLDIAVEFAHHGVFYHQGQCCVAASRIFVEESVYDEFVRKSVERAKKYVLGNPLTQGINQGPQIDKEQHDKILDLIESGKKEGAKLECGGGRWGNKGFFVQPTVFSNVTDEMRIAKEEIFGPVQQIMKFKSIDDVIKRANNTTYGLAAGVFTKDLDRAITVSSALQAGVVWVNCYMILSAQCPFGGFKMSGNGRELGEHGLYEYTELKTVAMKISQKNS

[2] = biological target: T1, cALDH-I; format: binding
[3] = pH 8
[4] = biological target: T1, cALDH-I; conditions: read-out: Michealis constant Km, reported literature value; cited from earlier work
[5] = tested on: rat testis proteome; format: binding

CCCCCCCCOS(=O)(=O)c1ccccn1 [Sulfonate 15, 1-(2-Pyridylsulfonyl)oxo-octane]
average Kobs/[I] [1]: (9.7+1.8)×10^3 M^−min^−
cALDH-I inactivation (in words) [1]: completely inactivated
effect of NAD^+ on inactivation of cALDH-I by 15 [1]: completely protected the enzyme from inactivation
blocking of the labeling of cALDH-I by 1 [2]: effectively blocked the labeling of cALDH-I by 1
stability in reaction buffer [3]: stable to the assay conditions employed

CCC=O [propionaldehyde, reference compound]
Km ([1]; read-out: Michealis constant Km): 4.2 µM
Km [4]: 6.5 µM

O=C(CCCCCCCCCOS(=O)(=O)c1ccccn1)NCCCCCNC(=O)CCCC[C@@H]1SC[C@@H]2NC(=O)N[C@@H]21 [sulfonate 1, 10-((2-pyridylsulfonyl)oxo)-N-biotinamidopentyldecanamide]
specific (heat-sensitive) proteome reactivity [5]: labeled a 55 kDa protein and a 31 kDa protein

O=C(CCCCCCCCCOS(=O)(=O)c1ccccc1)NCCCCCNC(=O)CCCCC1SCC2NC(=O)NC21 (stereo not drawn) [sulfonate 2, 10-((Benzenesulfonyl)oxo)-N-biotinamidopentyldecanamide]
specific (heat-sensitive) proteome reactivity [5]: reacted with three of the four proteins labeled by 4 and 5

Cc1ccc(S(=O)(=O)OCCCCCCCCCC(=O)NCCCCCNC(=O)CCCCC2SCC3NC(=O)NC32)cc1 (stereo not drawn) [sulfonate 3, 10-((p-Toluenesulfonyl)oxo)-N-biotinamidopentyldecanamide]
specific (heat-sensitive) proteome reactivity [5]: specifically labeled one 55 kDa protein

COc1ccc(S(=O)(=O)OCCCCCCCCCC(=O)NCCCCCNC(=O)CCCCC2SCC3NC(=O)NC32)cc1 (stereo not drawn) [sulfonate 4, 10-((4-Methoxybenzenesulfonyl)oxo)-N-biotinamidopentyldecanamide]
nonspecific (heat-insensitive) reactivity with the preheated proteome [5]: showed significant additional reactivity with the preheated proteome
specific (heat-sensitive) proteome reactivity [5]: labeled four members of the proteome in a heat-sensitive manner

CS(=O)(=O)OCCCCCCCCCC(=O)NCCCCCNC(=O)CCCCC1SCC2NC(=O)NC21 (stereo not drawn) [sulfonate 5, 10-((Methylsulfonyl)oxo)-N-biotinamidopentyldecanamide]
nonspecific (heat-insensitive) reactivity with the preheated proteome [5]: showed significant additional reactivity with the preheated proteome
specific (heat-sensitive) proteome reactivity [5]: labeled four members of the proteome in a heat-sensitive manner

CCCCS(=O)(=O)OCCCCCCCCCC(=O)NCCCCCNC(=O)CCCCC1SCC2NC(=O)NC21 (stereo not drawn) [sulfonate 6, 10-((Butylsulfonyl)oxo)-N-biontinamidopentyldecanamide]
specific (heat-sensitive) proteome reactivity [5]: specifically labeled one 55 kDa protein

O=C(CCCCCCCCCOS(=O)(=O)c1ccc([N+](=O)[O-])cc1)NCCCCCNC(=O)CCCCC1SCC2NC(=O)NC21 (stereo not drawn) [sulfonate 8, 10-((4-Nitrobenzenesulfonyl)oxo)-N-biotinamidopentyldecanamide]
specific (heat-sensitive) proteome reactivity [5]: reacted specifically with a 55 kDa protein, as well as two additional proteins poorly labeled by the other reagents

O=C(CCCCCCCCCOS(=O)(=O)c1cccc2cccnc12)NCCCCCNC(=O)CCCCC1SCC2NC(=O)NC21 (stereo not drawn) [sulfonate 9, 10-((8-Quinolinesulfonyl)oxo)-N-biotinamidopentyldecanamide]
specific (heat-sensitive) proteome reactivity [5]: reacted specifically with a 55 kDa protein, as well as two additional proteins poorly labeled by the other reagents

O=C(CCCCCCCCCOS(=O)(=O)c1ccc2ccccc2c1)NCCCCCNC(=O)CCCCC1SCC2NC(=O)NC21 (stereo not drawn) [sulfonate 10, 10-((2-Naphthalenesulfonyl)oxo)-N-biotinamidopentyldecanamide]
specific (heat-sensitive) proteome reactivity [5]: specifically labeled one 55 kDa protein

O=C(CCCCCCCCCOS(=O)(=O)c1cccs1)NCCCCCNC(=O)CCCCC1SCC2NC(=O)NC21 (stereo not drawn) [sulfonate 11]
specific (heat-sensitive) proteome reactivity [5]: reacted specifically with a 55 kDa protein, as well as two additional proteins poorly labeled by the other reagents

CCOS(=O)(=O)c1ccccn1 [sulfonate 16, 1-(2-Pyridylsulfonyl)oxo-ethane]
% Activity Remaining [1]: 42%
Kobs/[I] [1]: 0.00417 M⁻¹ s⁻¹
cALDH-I inactivation (in words) [1]: weak
second order inhibition rate constant, times lower than that determined for 15 [1]: 40000 times
blocking of the labeling of cALDH-I by 1 [2]: did not block the labeling of cALDH-I by 1

CCCCCCCCOS(C)(=O)=O [sulfonate 17, 1-(Methanesulfonyl)oxo-octane]
% Activity Remaining [1]: 100%
cALDH-I inactivation (in words) [1]: no inhibition
blocking of the labeling of cALDH-I by 1 [2]: did not block the labeling of cALDH-I by 1

Source: patent US20050287594A1 (priority 2000, published 2005)
